{"source": "paper PMC8251916", "about": "(Chemistry (Weinheim an Der Bergstrasse, Germany), 2021)", "key": {"[1]": {"test_system": "L. major", "assay": "Leishmaniacidal activity, MTT assay", "assay_type": "cell-based", "settings": "Leishmania major; 72 h incubation, MTT absorbance; read-out: absolute EC50 L. major", "protocol": "(§1) Doxorubicin, suramin and miltefosine were used as control compounds.[ ^6b , ^9 ] After incubation with varied concentrations of the compounds for 72 h, cell viability was measured using either an alamarBlue™ assay (for MRC5, HeLa and T. brucei) or MTT assay (for L. major). Absolute EC50 values and selectivity indexes were then calculated from dose‐response curves (Table 2 and S14).\nInvitrogen). L. major promastigotes (MHOM/IL/80/Friedlin) were cultured at 28 °C, 5 % CO2 in modified RPMI-1640 medium (Thermo Fisher Scientific, Waltham, MA, USA) with 10% hiFBS. Parasites were split every other day and maintained in their experimental growth phase (below 2 million parasites per mL). […]\nThe results are expressed as the concentration of compound that reduces cell growth by 50 % versus untreated control cells (EC50) using GraphPad Prism 7 (GraphPad Software) to fit the data to a sigmoidal curve. Data are presented as the average of three independent measurements all conducted in triplicate conditions. […]\nThe leishmaniacidal activity of the compounds on promastigotes L. major (MHOM/IL/80/Friedlin) was carried out as previously described.[S14] Briefly, 4 × 10^6 / mL promastigotes were incubated for 72 h at 28 °C in 96-well plates (50 µL/well) in the presence of increasing concentration of compounds. Cell proliferation was determined using an MTT-based assay (Sigma-Aldrich). Thus, after the 72 h incubation, 10 µL of MTT (5 mg/ml) were added to each well and parasites were reincubated for 4 hrs at 28 °C. Then, 50 µL of 20 % SDS were added to each well. The plate was then incubated at 37°C for 4-16 hrs and analysed using an Infinite F200 plate reader (TECAN Austria, GmbH). The absorbance was measured […]\nat a wavelength of 540 nm and the EC50 was calculated as described above. Data are presented as the average of three independent measurements, all conducted in triplicate conditions. […]"}, "[2]": {"test_system": "HeLa cervical carcinoma cells", "assay": "Cytotoxicity, alamarBlue assay, HeLa", "assay_type": "cell-based, human", "settings": "for EC50: Homo sapiens, HeLa, 72 h incubation, alamarBlue fluorescence, read-out: absolute EC50 HeLa", "protocol": "as §1, with “S14). […]” for “S14).”\nCell culture reagents were purchased from Thermo Fisher Scientific (Waltham, MA, USA) and used as-is. The Dulbecco’s Minimal Essential Medium (DMEM) formulation contained either high glucose (4.5 g/L, catalogue number: 10569) or low glucose (1 g/L, catalogue number:\n10567). RPMI-1640 was provided without sodium pyruvate and with L-glutamine (catalogue number: 11875). Phosphate Buffered Saline (PBS) contained NaCl (9 g/L), KH2PO4 (144 mg/L) and Na2HPO4-7.H2O (795 mg/L, catalogue number: 10010049). TrypLE Express™ was provided with EDTA (458 mg/L) and without Phenol Red (catalogue number: 12604021).\nMRC-5 cells (human lung fibroblasts) were grown in monolayer (37 °C, 5 % CO2 and 100 % humidity) in DMEM medium (1 g/L glucose), supplemented with 10% heat-inactivated Fetal Bovine Serum (hiFBS), 2 mM L-glutamine, 100 U / mL penicillin and […] streptomycin. HeLa (Human cervical carcinoma cell line) cells were maintained at 37 °C and 5 % CO2 in high glucose DMEM (4.5 g / L) supplemented with 10% hiFBS, 100 U / ml penicillin, […] streptomycin, 2 mM L-glutamine and non-essential aminoacids (1X).\nCells were cultured according to ATCC recommendations and were used for the experiments while in the exponential growth phase. […]\nCytotoxicity was measured through the alamarBlue® assay (Thermo Fisher Scientific).[S6,S13] Briefly, 5×10^3 MRC-5 or HeLa cells were seeded in 96-wells plates (100 µL / well) in the presence of increasing concentrations of compound. After 72 hrs of incubation at 37 °C, 20 µL of alamarBlue® solution (110 ng / ml) was added to each well and cells were reincubated for 4 hrs at 37 °C. Then, 50 µL of 3 % SDS were added to each well. The plate was incubated at 37 °C for an extra hour and then analysed by fluorescence with an Infinite F200 plate reader (TECAN Austria, GmbH). The excitation wavelength was fixed at 550 nm and the emission wavelength at 590 nm. The results are expressed as the concentration of compound that reduces"}, "[3]": {"test_system": "F21T-Na+ (human telomeric G-quadruplex, antiparallel)", "assay": "FRET melting assay, human telomeric G4 in sodium buffer", "assay_type": "binding", "settings": "200 nM DNA, PIPER and 3 not reliable (spectral overlap)", "protocol": "(§2) With the library in hand, we began our investigation into G4 stabilization by conducting a Förster resonance energy transfer (FRET) melting assay to assess DNA stabilization using the procedure outlined by De Cian et. al. ^[13] […] The sequences examined (at 200 nM) were the human telomeric G4 in potassium buffer (F21T‐K^+, mixed parallel/hybrid G4) ^[14] and sodium buffer (F21T‐Na^+, antiparallel G4), ^[15] the c‐Myc promoter G‐quadruplex (FmycT‐K^+, parallel G4), ^[16] a polymorphic G4 found in T. brucei (FEBR1T‐K^+, a mixed G4 topology), ^[6b] and a hairpin duplex DNA sequence (F10T‐K^+). Together, these sequences represent targets for therapeutic intervention to treat parasitic infections, ^[6b] or cancer. ^[1b] The topology of each sequence was confirmed independently via circular dichroism (CD, Figure S1). […]\n(§3) FRET melting assays were performed to assess ligand affinity for duplex and G-quadruplex\n(§4) DNA. Briefly, oligonucleotides of interest were obtained labelled at the 5’ and 3’ ends with FAM (a fluorescence donor) and TAMRA (a fluorescence quencher), respectively. In the folded state, proximity of the donor and quencher result in no observed fluorescence from FAM, since energy is transferred non-radiatively to TAMRA by FRET. As the temperature is raised and the secondary structure denatures, the fluorophores move further apart and the fluorescence signal increases. From the resulting curve, the characteristic melting temperature (Tmax, also referred to as Tm) is defined as the temperature which corresponds to the maxima of the first derivative of the normalised fluorescence signal. The change in melting temperature (ΔTm) induced by the presence of a small molecule ligand provides an indication of the ligand’s ability to stabilise the DNA structure. FRET experiments were performed according to the […]\n(§5) procedure reported by De Cian and co-workers[S3] on a Stratagene MX3005P. The method consisted of holding at 25 °C for 5 min, before heating at 1 °C/min to 96 °C in 1 °C increments, […]"}, "[4]": {"test_system": "F21T-K+ (human telomeric G-quadruplex, mixed parallel/hybrid)", "assay": "FRET melting assay, human telomeric G4 in potassium buffer", "assay_type": "binding", "settings": "200 nM DNA, PIPER and 3 not reliable (spectral overlap)", "protocol": "as §2, §3, §4, §5"}, "[5]": {"settings": "5 μM ligand, 100 mM NaCl, 10 mM Li cacodylate"}, "[6]": {"settings": "5 μM ligand, 10 mM KCl, 90 mM LiCl, 10 mM Li cacodylate"}}, "data": [{"smiles": "CN1CCN(CCCN2C(=O)c3ccc4c5ccc6c7c(ccc(c8ccc(c3c48)C2=O)c75)C(=O)N(CCCN2CCN(C)CC2)C6=O)CC1", "note": "[Compound 3]", "values": [{"measurement": "EC50", "setting": "[1]", "result": "> 100", "unit": "µM"}, {"measurement": "EC50", "setting": "[2]", "result": "53 ± 6.2", "unit": "µM"}, {"measurement": "SI (MRC5/HeLa)", "setting": "[2]; selectivity index from EC50 values", "result": 0.04}, {"measurement": "ΔTm F21T-Na+", "setting": "[3]; 1 µM ligand", "result": "18 ± 2", "unit": "°C"}, {"measurement": "ΔTm F21T-Na+", "setting": "[3]; [5]", "result": "35±4", "unit": "°C"}, {"measurement": "ΔTm F21T-Na+", "setting": "[3]; 10 µM ligand", "result": "> 40", "unit": "°C"}, {"measurement": "ΔTm F21T-K+", "setting": "[4]; 1 µM ligand", "result": "10 ± 1", "unit": "°C"}, {"measurement": "ΔTm F21T-K+", "setting": "[4]; [6]", "result": "34±1", "unit": "°C"}, {"measurement": "ΔTm F21T-K+", "setting": "[4]; 10 µM ligand", "result": "33 ± 1", "unit": "°C"}]}, {"smiles": "CN1CCN(CCCN2C(=O)c3ccc4c5c(ccc(c35)C2=O)C(=O)N(CCCN2CCN(C)CC2)C4=O)CC1", "note": "[Compound 1]", "values": [{"measurement": "EC50", "setting": "[1]", "result": "0.47 ± 0.07", "unit": "µM"}, {"measurement": "EC50", "setting": "[2]", "result": "0.5 ± 0.05", "unit": "µM"}]}, {"smiles": "CN1CCN(CCCNC(=O)c2ccc(Oc3ccc(C(C)(C)c4ccc(Oc5ccc(C(=O)NCCCN6CCN(C)CC6)c(C(=O)NCCCN6CCN(C)CC6)c5)cc4)cc3)cc2C(=O)NCCCN2CCN(C)CC2)CC1", "note": "[Compound 11]", "values": [{"measurement": "EC50", "setting": "[1]", "result": "18 ± 1", "unit": "µM"}, {"measurement": "EC50", "setting": "[2]", "result": "14 ± 1", "unit": "µM"}, {"measurement": "ΔTm F21T-Na+", "setting": "[3]; 1 µM ligand", "result": "-4 ± 1", "unit": "°C"}, {"measurement": "ΔTm F21T-Na+", "setting": "[3]; [5]", "result": "1±1", "unit": "°C"}, {"measurement": "ΔTm F21T-Na+", "setting": "[3]; 10 µM ligand", "result": "9 ± 2", "unit": "°C"}, {"measurement": "ΔTm F21T-K+", "setting": "[4]; 1 µM ligand", "result": "-2 ± 1", "unit": "°C"}, {"measurement": "ΔTm F21T-K+", "setting": "[4]; [6]", "result": "7±2", "unit": "°C"}, {"measurement": "ΔTm F21T-K+", "setting": "[4]; 10 µM ligand", "result": "9 ± 1", "unit": "°C"}]}, {"smiles": "CN1CCN(CCCN2C(=O)c3ccc(Oc4ccc(C(C)(C)c5ccc(Oc6ccc7c(c6)C(=O)N(CCCN6CCN(C)CC6)C7=O)cc5)cc4)cc3C2=O)CC1", "note": "[Compound 9]", "values": [{"measurement": "EC50", "setting": "[1]", "result": "> 100", "unit": "µM"}, {"measurement": "EC50", "setting": "[2]", "result": "29 ± 3.5", "unit": "µM"}, {"measurement": "ΔTm F21T-Na+", "setting": "[3]; [5]", "result": "−4±1", "unit": "°C"}, {"measurement": "ΔTm F21T-Na+", "setting": "[3]; 10 µM ligand", "result": "6 ± 4", "unit": "°C"}, {"measurement": "ΔTm F21T-K+", "setting": "[4]; [6]", "result": "−1±1", "unit": "°C"}, {"measurement": "ΔTm F21T-K+", "setting": "[4]; 10 µM ligand", "result": "8 ± 3", "unit": "°C"}]}]}
